Measured values: ChEMBL document CHEMBL1130799, “Stability of acetal and non acetal-type analogs of artemisinin in simulated stomach acid” (Bioorg Med Chem Lett, 1998)
≈ marks a conversion by molar mass, not a printed value.

Legend:
[1] = Half life was determined; format: ADME; details: rat
Plasmodium falciparum = test: In vitro antimalarial activity against Plasmodium falciparum; format: functional, organism-based

| SMILES | half-life [1] | IC50 (Plasmodium falciparum) |
| --- | --- | --- |
| C[C@H]1[C@@H](OCc2ccc(C(=O)O)cc2)O[C@@H]2OC3(C)CCC4[C@H](C)CC[C@@H]1[C@]42OO3 (single isomer, unassigned) | 13.1 h | 1.38 ng/mL (≈ 3.3 nM) |
| C[C@H]1[C@@H](CCCCC(=O)O)O[C@@H]2O[C@]3(C)CCC4[C@H](C)CC[C@@H]1[C@]42OO3 (stereo partly specified) | 374 h | 1.28 ng/mL (≈ 3.47 nM) |
| C[C@H]1[C@@H](O)O[C@@H]2O[C@@]3(C)CC[C@H]4[C@H](C)CC[C@@H]1[C@@]24OO3 [ARTENIMOL] | 17.2 h |  |
| C[C@@H]1CC[C@H]2[C@@H](C)CO[C@@H]3O[C@]4(C)CCC1[C@]32OO4 (stereo partly specified) | 213 h | 0.15 ng/mL (≈ 0.559 nM) |
| C[C@@H]1CC[C@H]2[C@@H](C)C(=O)O[C@@H]3O[C@@]4(C)CC[C@@H]1[C@]32OO4 [ARTEMISININ] | 23.5 h |  |
| CCCC[C@H]1O[C@@H]2O[C@]3(C)CC[C@H]4[C@H](C)CC[C@@H]([C@H]1C)[C@@]24OO3 | 165 h | 1.15 ng/mL (≈ 3.54 nM) |
| CCO[C@H]1O[C@@H]2OC3(C)CCC4[C@H](C)CC[C@@H]([C@H]1C)[C@]42OO3 (single isomer, unassigned) | 11 h | 0.16 ng/mL (≈ 0.512 nM) |
| C[C@H]1[C@@H](Cc2ccccc2)O[C@@H]2O[C@]3(C)CCC4[C@H](C)CC[C@@H]1[C@]42OO3 (stereo partly specified) | 286 h | < 0.17 ng/mL |
| C[C@H]1[C@@H](CCCC(=O)O)O[C@@H]2O[C@]3(C)CCC4[C@H](C)CC[C@@H]1[C@]42OO3 (stereo partly specified) | 387 h | 1.3 ng/mL (≈ 3.67 nM) |
